{"source": "patent US4341798A", "about": "“Amide derivatives of p-isobutyl-phenyl-propionic acids and related pharmaceutical compositions” (Laboratori Prophin S.p.A., priority 1980, dated 1982)", "key": {"[1]": {"experiment": "(A) Inhibition of the oedema induced by carragenin in the rat paw", "format": "in vivo", "details": "for ED50: rat paw", "excerpt": "(A) Inhibition of the oedema induced by carragenin in the […]. Arch. Int. Pharmacodyn. 99,474. 1954). […] The subject oedema was induced in the rat and in the control animals caused a volume increase of the paw by 57.55%."}, "[2]": {"experiment": "(B) Inhibition of the arthritis induced by Freund adjuvant in the rat", "format": "in vivo", "excerpt": "(B) Inhibition of the arthritis induced by Freund adjuvant in the rat. (Newbould B.B. Brit. Journ. of Pharmacol. 21,127, 1963)."}, "[3]": {"experiment": "(C) Analgesic activity on the stretching induced by acetic acid in the mouse", "format": "in vivo", "excerpt": "(C) Analgesic activity on the \"stretching\" induced by acetic acid in the mouse.\n(Fennessy M. R., Lee C. R. \"Methods in Narcotic Research\" Eds. Ehrenpreise Neidle Dekker--New York 1975)."}, "[4]": {"experiment": "(D) Analgesic activity in the Flinch-jump test in the rat", "format": "in vivo", "excerpt": "(D) Analgesic activity in the Flinch-jump test in the rat.\n(Turner R. A. \"Screening methods in Pharmacology\" Accademic Press--New York 1965)."}, "[5]": {"details": "rat"}, "[6]": {"details": "for Mortality in 28 days: male and female rats"}, "in vivo [7]": {"experiment": "in vivo", "details": "rat"}, "[8]": {"experiment": "Oedema induced by kaolin in the rat (chronic inflammation)", "format": "in vivo", "details": "100 mg/kg p.o., controls 13", "excerpt": "(§1) The anti-inflammatory activity has been tested by the classic tests of the oedema induced by kaolin and egg white, which repeat two significant and different phases in the pathogenesis of the inflammatory process.\n(§2) The kaolin, injected in the tibio-tarsal connection of the rat, gives place to a chronic inflammation, whereas the egg white, injected in the subplantar area of the rat, causes an acute inflammatory state."}, "[9]": {"experiment": "Oedema induced by egg white in the rat (acute inflammation)", "format": "in vivo", "details": "100 mg/kg p.o., controls 20", "excerpt": "as §1, §2"}, "[10]": {"experiment": "Acute toxicity per os in the mouse", "format": "in vivo", "excerpt": "The compounds of the invention have been subjected to pharmacological tests, showing that they have a modeste or even negligible toxicity."}, "[11]": {"experiment": "Acute toxicity by oral route in the rat", "format": "in vivo"}, "[12]": {"experiment": "Acute toxicity by intraperitoneal route in the mouse", "details": "in vivo, ip"}, "[13]": {"experiment": "Teratogenic or embryotoxic action in the mouse", "format": "in vivo"}, "[14]": {"experiment": "Teratogenic or embryotoxic action in the rabbit", "format": "in vivo"}, "[15]": {"experiment": "Therapeutical indexes (TD50 of 28 day subacute toxicity versus ED50 of tests A-D)", "format": "in vivo", "details": "TD50 (28 days) versus ED50 of tests A-D"}, "Solubility": {"experiment": "Solubility", "format": "physicochemical"}, "in vivo [16]": {"experiment": "in vivo", "details": "rat, ip"}, "[17]": {"details": "molecular weight taken into consideration, read-out: ED50, inhibition of carragenin oedema (molar basis)"}, "[18]": {"details": "read-out: ED50, inhibition of carragenin oedema"}, "[19]": {"details": "rat, molar basis, read-out: ED50, Freund adjuvant arthritis (molar basis)"}, "[20]": {"details": "mouse, molar basis, read-out: ED50, stretching induced by acetic acid (molar basis)"}, "[21]": {"details": "mouse, read-out: ED50, stretching induced by acetic acid"}, "[22]": {"details": "Flinch-jump test, rat, read-out: ED50, dose causing a 50% increase of the algogenic stimulus"}, "[23]": {"details": "rat, molar basis, read-out: ED50, Flinch-jump test (molar basis)"}}, "note": "Several values for one entry are separate records, joined by “and”; a condition that tells them apart may be missing. Equal values may be shown once. Read-outs that look alike come from different tables or passages of the source.", "data": [{"molecule": "CC(C)Cc1ccc(C(C)C(=O)O)cc1", "note": "(stereo not shown) [Ibuprofen, p-isobutyl-phenyl-propionic acid]", "values": [{"measurement": "ED50", "setting": "[1]; [17]", "result": 820, "unit": "µmol/kg"}, {"measurement": "ED50", "setting": "[1]; [18]", "result": 170, "unit": "mg/kg"}, {"measurement": "ED50", "setting": "[2]; [19]", "result": 300, "unit": "µmol/kg"}, {"measurement": "ED50", "setting": "[3]; [20]", "result": 500, "unit": "µmol/kg"}, {"measurement": "ED50", "setting": "[3]; [21]", "result": 105, "unit": "mg/kg"}, {"measurement": "ED50", "setting": "[4]; [22]", "result": 108, "unit": "mg/kg"}, {"measurement": "ED50", "setting": "[4]; [23]", "result": 520, "unit": "µmol/kg"}, {"measurement": "Mortality after 7 days", "setting": "[5]; 250 mg/kg intraperitoneal", "result": "0/6"}, {"measurement": "Mortality after 7 days", "setting": "[5]; 360 mg/kg intraperitoneal", "result": "2/6"}, {"measurement": "Mortality after 7 days", "setting": "[5]; 520 mg/kg intraperitoneal", "result": "5/6"}, {"measurement": "Mortality after 7 days", "setting": "[5]; 750 mg/kg intraperitoneal", "result": "6/6"}, {"measurement": "Mortality in 28 days", "setting": "[6]; 25 mg/kg", "result": "0/10"}, {"measurement": "Mortality in 28 days", "setting": "[6]; 50 mg/kg", "result": "3/10"}, {"measurement": "Mortality in 28 days", "setting": "[6]; 100 mg/kg", "result": "4/10"}, {"measurement": "Mortality in 28 days", "setting": "[6]; 200 mg/kg", "result": "5/10"}, {"measurement": "TD50 at 672 h", "setting": "in vivo [7]", "result": 590, "unit": "µmol/kg"}]}, {"molecule": "COc1ccc2cc([C@H](C)C(=O)O)ccc2c1", "note": "[Naproxene, d-2(6'-methoxy-2'-naphtyl)-propionic acid]", "values": [{"measurement": "ED50", "setting": "[1]; [17]", "result": 210, "unit": "µmol/kg"}, {"measurement": "ED50", "setting": "[1]; [18]", "result": 47.9, "unit": "mg/kg"}, {"measurement": "Mortality in 28 days", "setting": "[6]; 25 mg/kg", "result": "2/10"}, {"measurement": "Mortality in 28 days", "setting": "[6]; 50 mg/kg", "result": "6/10"}, {"measurement": "Mortality in 28 days", "setting": "[6]; 100 mg/kg", "result": "10/10"}]}, {"molecule": "lysinamide of p-isobutyl-phenyl-propionic acid", "values": [{"measurement": "Kaolin test increase %", "setting": "[8]", "result": "7.1 ± 5.3", "unit": "%"}, {"measurement": "Egg white test increase %", "setting": "[9]", "result": "11 ± 5.6", "unit": "%"}]}, {"molecule": "CC(C)Cc1ccc(C(C)C(=O)Nc2cccc(C(F)(F)F)c2)cc1", "note": "(stereo not shown) [BT-03, p-isobutyl-phenyl-propionamide of metatrifluorotoluidine]", "values": [{"measurement": "LD50 by oral route in the mouse", "setting": "[10]", "result": "has not permitted as well to determine any LD50 value"}, {"measurement": "Kaolin test increase %", "setting": "[8]", "result": "7 ± 5.5", "unit": "%"}, {"measurement": "Egg white test increase %", "setting": "[9]", "result": "10 ± 5.1", "unit": "%"}, {"measurement": "acute toxicity", "setting": "[11]; both by oral and by intraperitoneal route", "result": "very low acute toxicity"}, {"measurement": "LD50", "setting": "[11]; rat, in vivo, po, 4000 mg/kg", "result": "> 4000", "unit": "mg/kg"}, {"measurement": "LD50", "setting": "[12]; female mice", "result": 1190, "unit": "mg/kg"}, {"measurement": "LD50", "setting": "[12]; male mice", "result": 940, "unit": "mg/kg"}, {"measurement": "teratogenic or embryotoxic action", "setting": "[13]", "result": "have not demonstrated any teratogenic or embryotoxic action"}, {"measurement": "teratogenic or embryotoxic action", "setting": "[14]", "result": "have not demonstrated any teratogenic or embryotoxic action"}, {"measurement": "times less active than Naproxene", "setting": "[1]; molar basis", "result": "about 1.4 times"}, {"measurement": "times more active than Ibuprofen", "setting": "[1]; molar basis", "result": 2.8, "unit": "times"}, {"measurement": "ED50", "setting": "[1]; [17]", "result": 290, "unit": "µmol/kg"}, {"measurement": "ED50", "setting": "[1]; [18]", "result": 103, "unit": "mg/kg"}, {"measurement": "ED50", "setting": "[2]; Freund adjuvant, rat, read-out: ED50, dose which causes the volume increase of the paw to be reduced by 50%", "result": 87, "unit": "mg/kg"}, {"measurement": "activity with respect to Ibuprofen", "setting": "[2]; proportionally to the administered doses", "result": "superior as regards the activity and of lower toxicity with respect to Ibuprofen"}, {"measurement": "inhibition of lesions directly induced by Freund adjuvant in the injected paw", "setting": "[2]; rat", "result": "inhibit the lesions directly induced by the Freund adjuvant in the injected paw"}, {"measurement": "inhibition of the development of secundary lesions", "setting": "[2]; rat", "result": "capable of inhibiting the development of the secundary lesions"}, {"measurement": "ED50", "setting": "[2]; [19]", "result": 250, "unit": "µmol/kg"}, {"measurement": "times more active than Ibuprofen", "setting": "[3]; molar basis", "result": "about 1,4 times"}, {"measurement": "inhibition of stretching", "setting": "[3]; mouse", "result": "does inhibit the stretching induced by acetic acid proportionally to the administered dose"}, {"measurement": "ED50", "setting": "[3]; [20]", "result": 350, "unit": "µmol/kg"}, {"measurement": "ED50", "setting": "[3]; [21]", "result": 123, "unit": "mg/kg"}, {"measurement": "ED50", "setting": "[4]; [22]", "result": 129, "unit": "mg/kg"}, {"measurement": "activity, times greater than that of the reference substance (Ibuprofen)", "setting": "[4]; molar basis", "result": "about 1.4 times"}, {"measurement": "increase of the algogenic threshold", "setting": "[4]; rat", "result": "increase of the algogenic threshold, proportionally to the administered dose"}, {"measurement": "ED50", "setting": "[4]; [23]", "result": 370, "unit": "µmol/kg"}, {"measurement": "therapeutical index compared with Ibuprofen", "setting": "[15]", "result": "A constant advantage"}, {"measurement": "solubility", "setting": "Solubility", "result": "insoluble in water and soluble in most organic solvents"}, {"measurement": "Mortality after 7 days", "setting": "[5]; in vivo", "result": "1/6 and 5/6 and 6/6"}, {"measurement": "animals died during the test period", "setting": "[6]; rat, in vivo, 200 mg/kg", "result": "two"}, {"measurement": "LD50", "setting": "in vivo [16]; LD50 by intraperitoneal route in the rat, female rats", "result": 1760, "unit": "mg/kg"}, {"measurement": "LD50", "setting": "in vivo [16]; LD50 by intraperitoneal route in the rat, male rats", "result": 1620, "unit": "mg/kg"}, {"measurement": "LD50", "setting": "in vivo [16]; LD50 ± f.l. (P 0,05), intraperitoneal, f.l. = fiduciary limits", "result": "1200 ± 264", "unit": "mg/kg"}, {"measurement": "TD50 at 672 h", "setting": "in vivo [7]", "result": 660, "unit": "µmol/kg"}]}, {"molecule": "CC(C)Cc1ccc(C(C)C(=O)NC(CCC(=O)O)C(=O)O)cc1", "note": "(stereo not shown) [glutamic amide of the p-isobutyl-phenyl-propionic acid]", "values": [{"measurement": "solubility", "setting": "Solubility", "result": "not soluble in water, diluted HCl and cyclohexane"}]}]}
